Results taken from EP4656642A1, “ESTROGEN RECEPTOR PROTEOLYSIS TARGETING CHIMERA COMPOUND AND USE THEREOF” (GAN & LEE PHARM CO., LTD, priority 2023, dated 2024).
Changes are numbered by the printed parent chain.

Columns and labels:
AR protein [1] = biological target: T1, AR protein (Homo sapiens, UniProt P10275, T878A); assay: Degradation of AR protein in LNCAP cells (Western blot, 8 h); type: cell-based; settings: LNCaP FGC cells
T1 construct: host or cells: LNCaP FGC
T1 sequence (P10275 1-920 T878A): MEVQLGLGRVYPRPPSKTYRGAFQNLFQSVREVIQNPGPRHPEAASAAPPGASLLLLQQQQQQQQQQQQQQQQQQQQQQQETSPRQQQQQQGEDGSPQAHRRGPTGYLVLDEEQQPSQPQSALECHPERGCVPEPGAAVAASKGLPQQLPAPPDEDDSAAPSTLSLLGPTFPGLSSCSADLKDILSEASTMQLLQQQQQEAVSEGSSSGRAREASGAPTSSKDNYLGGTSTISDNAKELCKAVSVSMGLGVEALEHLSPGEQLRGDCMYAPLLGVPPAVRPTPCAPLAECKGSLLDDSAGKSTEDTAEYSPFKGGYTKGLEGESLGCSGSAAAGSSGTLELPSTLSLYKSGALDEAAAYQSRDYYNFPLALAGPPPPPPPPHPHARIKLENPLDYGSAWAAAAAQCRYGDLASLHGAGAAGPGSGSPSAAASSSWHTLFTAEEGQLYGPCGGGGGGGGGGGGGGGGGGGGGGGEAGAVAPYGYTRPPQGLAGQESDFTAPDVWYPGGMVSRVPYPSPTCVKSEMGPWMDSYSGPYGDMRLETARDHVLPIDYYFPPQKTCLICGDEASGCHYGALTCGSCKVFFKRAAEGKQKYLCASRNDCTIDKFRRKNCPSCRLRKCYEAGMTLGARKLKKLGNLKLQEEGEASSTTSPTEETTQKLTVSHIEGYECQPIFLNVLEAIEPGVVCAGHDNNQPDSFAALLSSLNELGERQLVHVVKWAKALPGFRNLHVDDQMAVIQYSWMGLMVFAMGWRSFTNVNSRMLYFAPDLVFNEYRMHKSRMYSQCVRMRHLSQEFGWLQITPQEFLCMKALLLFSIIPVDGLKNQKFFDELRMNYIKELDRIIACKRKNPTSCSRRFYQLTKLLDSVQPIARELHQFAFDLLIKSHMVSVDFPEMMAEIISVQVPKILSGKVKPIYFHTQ

AR protein [2] = biological target: T2, AR protein (Homo sapiens, UniProt P10275); type: cell-based; settings: 8 h
T2 construct: host or cells: VCaP
T2 sequence (P10275 1-920): T1 sequence (P10275 1-920 T878A) with A878T
Procedure: Test Example 9 Degradation activity of the compounds disclosed in the present disclosure against AR protein in VCAP cells (cell source: ATCC)
AR-positive human prostate cancer cells, VCaP, were inoculated in six-well microplates (Thermo Catalog No. 140675) in DMEM (GiBco Catalog No. 11995-065) containing 10% FBS (Hyclone Catalog No. SH30406.05) at a density of 3 × 10^5 cells/well. […] After 8 h, the culture medium was discarded, and cells were washed with PBS, then RIPA lysis buffer containing 1% Protease Inhibitor Cocktail was added, and the total protein extract was obtained after lysis and centrifugation, and the protein concentration in the extract was detected by BCA method. Protein electrophoresis was carried out by SDS-PAGE, after which the protein was transferred to PVDF (Millipore Sigma catalog number PSRP010R5) membrane by 100V constant-voltage electrotransfer for 60 min, and the PVDF membrane was placed in 1×TBST solution with 5% milk and blocked at room temperature for 1 h. The primary antibody solution (Anti-Androgen receptor, Cell Signaling Technology Catalog No. 5153S; 1: 2000 dilution) was prepared and incubated overnight at 4°C. The primary antibody solution was discarded, and the PVDF membrane was washed three times with 1× TBST for 5 min each. The secondary antibody solution (Thermo catalog number SA5-35571; 1:7500 dilution) was prepared, and the secondary antibody dilution was incubated at room temperature for 1h. The secondary antibody solution was discarded, and the PVDF membrane was washed three times with 1×TBST for 5 min each. Western membrane imaging was performed using a dual-color infrared laser imaging system (Licor catalog number Odyssey CLX). Bands were analyzed in grayscale using the software Image Studio. For each sample, GAPDH protein bands were detected as internal reference. The degradation rates of the AR protein for the compounds and positive control sample were calculated based on the grayscale of the protein bands.

Row | SMILES | Degradation rates of the AR protein in LNCAP cells, 10 nM (%) (AR protein [1]) | Degradation rates of the AR protein in LNCAP cells, 100 nM (%) (AR protein [1]) | Degradation rates of the AR protein in VCAP cells, 0.5 nM (AR protein [2]) | Degradation rates of the AR protein in VCAP cells, 5 nM (AR protein [2])
1 | COC1(CN2CCC3(CC2)COc2c3ccc3c2C(=O)N(C2CCC(=O)NC2=O)C3)CCN(c2ccc(C(=O)N[C@H]3CC[C@H](Oc4ccc(C#N)c(Cl)c4)CC3)nn2)CC1 (relative stereo) [2-263] | 38% | 69% | 65% | 88%
2 | N#Cc1ccc(O[C@H]2CC[C@H](NC(=O)c3ccc(N4CCC(F)(CN5CCC6(CC5)COc5c6ccc6c5C(=O)N(C5CCC(=O)NC5=O)C6)CC4)nn3)CC2)cc1Cl (relative stereo) [2-315] | 33% | 44% | 31% | 71%
3 | COc1cc(O[C@H]2C(C)(C)[C@H](NC(=O)c3ccc(N4CCC(C)(CN5CCC6(CC5)COc5c6ccc6c5C(=O)N(C5CCC(=O)NC5=O)C6)CC4)cc3)C2(C)C)ccc1C#N (relative stereo) [2-292] | 43% | 78% | 30% | 72%
4 | COc1cc(O[C@H]2C(C)(C)[C@H](NC(=O)c3ccc(N4CCC(CN5CCC6(CC5)COc5c6ccc6c5C(=O)N(C5CCC(=O)NC5=O)C6)CC4)cc3)C2(C)C)ccc1C#N (relative stereo) [2-318] | 58% | 73% | 55% | 78%
5 | COc1cc(O[C@H]2CC[C@H](NC(=O)c3ccc(N4CCC(F)(CN5CCC6(CC5)COc5c6ccc6c5C(=O)N(C5CCC(=O)NC5=O)C6)CC4)nn3)CC2)ccc1C#N (relative stereo) [2-316] | 49% | 61% | 35% | 61%
6 | CC1(CN2CCC3(CC2)COc2c3ccc3c2C(=O)N(C2CCC(=O)NC2=O)C3)CCN(c2ccc(C(=O)N[C@H]3CC[C@H](Oc4ccc(C#N)c(Cl)c4)CC3)nn2)CC1 (relative stereo) [2-262] | 47% | 68% | 34% | 75%
7 | COc1cc(O[C@H]2C(C)(C)[C@H](NC(=O)c3ccc(N4CCC(CN5CCC6(CC5)COc5c6ccc6c5C(=O)N(C5CCC(=O)NC5=O)C6)(OC)CC4)cc3)C2(C)C)ccc1C#N (relative stereo) [2-293] | 62% | 82% | 72% | 89%
8 | COc1cc(O[C@H]2CC[C@H](NC(=O)c3ccc(N4CCC(C)(CN5CCC6(CC5)COc5c6ccc6c5C(=O)N(C5CCC(=O)NC5=O)C6)CC4)nn3)CC2)ccc1C#N (relative stereo) [2-261] | 53% | 70% | 44% | 82%
9 | C[C@H]1CC2(CCN(c3ccc(N4CCC(CN5CCC6(CC5)COc5c6ccc6c5C(=O)N(C5CCC(=O)NC5=O)C6)CC4)cc3)CC2)CN1c1ccc(C#N)c(Cl)c1 (stereo partly drawn) [2-103] | 55% | 79% | 0% | 47%
